This note sets out measurements from patent EP3345917A1, “ANTIPROTOZOAL COMPOUNDS” (Bacoba AG, priority 2017, dated 2018).

The test system of data set [1] is Trypanosoma cruzi trypomastigote forms (Tulahuen strain). The data set can be described thus: Intracellular Trypanosoma cruzi assay in L6-cells, beta-galactosidase/CPRG readout. The class given is cell-based. Conditions: In vitro inhibition, read-out: T.cruzi. The gist of the method:
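L6 rat myoblasts infected with Tulahuen C2C4 LacZ T. cruzi; after incubation, CPRG/Nonidet substrate added and colour developed 2–6 h. Absorbance at 540 nm; IC50 calculated; triplicate tests.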

The subject of data set [2] is intracellular Leishmania donovani (L.don. InMac). Description: Intracellular Leishmania donovani assay (L.don. InMac). The class given is cell-based. Conditions: In vitro inhibition. An excerpt: (§1) Tests were done in triplicate.
Data set [3] concerns Trypanosoma brucei brucei. The data set can be described thus: Acute mouse sleeping sickness model (in vivo antitrypanosomal activity). As to Parasitaemia day 7: key: 0 = no parasite in 20 fields of view; ((+)) = 1 Trypanosome in 20 fields of view; (+) = 1 Trypanosome per field of view; + = 2 - 5 Trypanosomes per field of view; ++ = 6 - 20 Trypanosomes per field of view, the mouse is killed; +++ = > 20 Trypanosomes per field of view, the mouse is killed. As for the experimental part: This model mimics the first stage of the human African trypanosomiasis. Adult female NMRI mice were purchased from Janvier (St. Berthevin, France). They weighed between 20 and 25 g at the beginning of the study and were kept under standard conditions at 22 °C and 60-70% humidity in macro Ion type III cages with food pellets and water ad libitum. The samples were first dissolved in 100% DMSO, followed by addition of distilled H2O to a final DMSO concentration of 10%. For determination of the in vivo antitrypanosomal activity, mice were infected intraperitoneally with 1 x 10^4 STIB900 bloodstream forms. […] A control group of four mice was infected, but remained untreated. The determination of the parasitaemia was done on days 7, 10, 14, 17, 21, 24, 28, and 31 post infection. To do this 6 µL of tail blood were diluted in 24 µL sodium citrate (3.2%), whereby the first µL was discarded to obtain circulating blood. Five µL of this mixture were transferred to a glass slide and covered with an 18 x 18 mm cover slide. The sample was examined under a light microscope (200-fold magnification) and parasites were counted in 3 of the 16 squares of the grid.

Data set [4] concerns Trypanosoma brucei rhodesiense (STIB 900 strain). Description: Alamar Blue assay against Trypanosoma brucei rhodesiense grown in axenic medium. The class given is cell-based. Conditions: In vitro inhibition, read-out: T.b.rhod. Summed up: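 T. b. rhodesiense STIB 900 cultured in axenic medium and exposed to samples in an Alamar Blue viability assay, run in triplicate. IC50 calculated from the readout; melarsoprol served as reference drug.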
For orientation: Resazurin is reduced to fluorescent resorufin, in cell work by metabolically active cells.

The test system of data set [5] is Axenically grown Leishmania donovani amastigotes (strain MHOM/ET/67/L82). The data set can be described thus: Axenic Leishmania donovani amastigote resazurin assay. It is filed as cell-based. The conditions noted are these: In vitro inhibition, read-out: L.don. ax. The gist of the method:
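Strain MHOM/ET/67/L82 amastigotes grown axenically and tested in triplicate by resazurin assay. Plates developed 2-4 hours, fluorescence read at 536 nm excitation/588 nm emission and expressed as percentage of negative control.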

For the next data set, the system named is Plasmodium falciparum. The data set can be described thus: 3H-hypoxanthine incorporation assay against Plasmodium falciparum. The class given is cell-based. Conditions: In vitro inhibition, read-out: P.falc NF5. As for the experimental part: as §1
IC50 values were calculated by linear interpolation.

Data set [6] is described as follows: Cytotoxicity assay on L6-cells (Alamar Blue). The conditions noted are these: rat, Cytotox L6, Cytotoxicity against rat myoblast cells (L6).
Where [7] appears, read: 3 mg/kg per injection, 2 per day, 2 treatment days, i.p., group of four mice.
Setting [8] is: 3 mg/kg per injection, 2 per day, 2 treatment days, i.p., individual mice.
Where [9] appears, read: 3 mg/kg twice a day for 2 days, intraperitoneal.

Molecules are shown by their SMILES. Where “and” joins values, the source holds several entries; their conditions need not be identical. Identical values can stand only once. Entries after “also recorded” stand apart in the source; their conditions may differ. Non-standard residues stand in square brackets, D forms with d. Residues, ends and D or L forms follow the SMILES beside them. *: point of attachment. Dansyl = CN(C)c1cccc2c(S(=O)(=O)*)cccc12; NH((S)CH(Me)CH2NMe2) = C[C@@H](CN(C)C)N*; NH(1-CH2NMe2-cBu) = CN(C)CC1(N*)CCC1; Gly(octyl) = CCCCCCCC[C@H](N)C(=O)O; Benzoyl(4-F) = O=C(c1ccc(F)cc1)*; hCha = N[C@@H](CCC1CCCCC1)C(=O)O; Hexanoyl = CCCCCC(=O)*; Aib = CC(C)(N)C(=O)O; βAla = NCCC(=O)O

In the case of `CC(C)C[C@H](NC(=O)[C@H](CCC1CCCCC1)NC(=O)[C@@H]1CCCN1C(=O)c1ccc(F)cc1)C(=O)NC(C)(C)C(=O)N[C@@H](CC(C)C)C(=O)N[C@@H](CC(C)C)C(=O)NC(C)(C)C(=O)NC(C)(C)C(=O)NCCC(=O)NC1(CN(C)C)CCC1` [Compound 6027, (2S)-2-[(2S)-4-cyclohexyl-2-{[(2S)-1-(4-fluorobenzoyl)pyrrolidin-2-yl]formamido}butanamido]-N-(1-{[(1S)-1-{[(1S)-1-({1-[(1-{[2-({1-[(dimethylamino)methyl]cyclobutyl}carbamoyl)ethyl]carbamoyl}-1-methylethyl)carbamoyl]-1-methylethyl}carbamoyl)-3-methylbutyl]carbamoyl}-3-methylbutyl]carbamoyl}-1-methylethyl)-4-methylpentanamide] ({Benzoyl(4-F)}-P[hCha]L[Aib]LL[Aib][Aib][βAla]-{NH(1-CH2NMe2-cBu)}), the IC50 in data set [1] was found to be 155 nM. Also, the IC50 in data set [2] came to 54.2 nM. In data set [3] (setting [7]), the “Mean day of relapse” value is 17 days and the “Mean day of survival” value worked out at 18 days. Further, in data set [3] (setting [8]), the Day of relapse was 17 days, the “Parasitaemia day 7” value is 0, the “Parasitaemia day 10” value came out at 0 and the “Parasitaemia day 14” value was 0. Also, in data set [3] (setting [8]), the “Parasitaemia day 17” value is given as “++ (++ = 6 - 20 Trypanosomes per field of view, the mouse is killed); also recorded: + (+ = 2 - 5 Trypanosomes per field of view)”; the “Parasitaemia day 21” value is “((+)) (((+)) = 1 Trypanosome in 20 fields of view)”; the “Parasitaemia day 24” value is recorded as “((+)) (((+)) = 1 Trypanosome in 20 fields of view)”; the “Parasitaemia day 28” value is “(+) ((+) = 1 Trypanosome per field of view)”. Further, in data set [3] (setting [8]), the “Parasitaemia day 31” value was “(+) ((+) = 1 Trypanosome per field of view)”; the Survival days was 17 days (2×) and 31 days and 5 days. In addition, in data set [3] (setting [9]), the “parasitaemia by day 17” value is on record as “all surviving animals showed parasitaemia” and the “parasitaemia of the surviving animal at day 31” value is listed as “low parasitaemia”. Besides, in data set [3] (3 mg/kg twice a day for 2 days, intraperitoneal, after day 17), the “animals sacrificed after parasitaemia relapse” value is “two”. Further, the “parasitaemia on day 7” value in data set [3] (3 mg/kg twice a day for 2 days, intraperitoneal, day 7 post infection) is listed as “no observable parasitaemia”. In addition, in data set [3] (3 mg/kg twice a day for 2 days, intraperitoneal, four mice), the “reduction of parasitaemia compared to untreated controls” value is listed as “significant reduction of parasitaemia”. The “animals surviving until day 31” value in data set [3] (3 mg/kg twice a day for 2 days, intraperitoneal, group of four mice) is recorded as “one”. Moreover, the animals surviving treatment result in data set [3] (3 mg/kg twice a day for 2 days, intraperitoneal, one death on day 5 for unspecified reasons) is listed as “all animals survived treatment, except for one”. Moreover, in data set [4], the IC50 was 0.4 nM. Besides, in data set [5], the IC50 was determined as 34100 nM. In addition, in the data set on Plasmodium falciparum, the IC50 stood at 42500 nM. In data set [6], this compound came in with an IC50 at 70 h of 1390 nM.
For `CCCCCCCC[C@H](NC(=O)[C@@H]1CCCN1C(=O)CCCCC)C(=O)N[C@@H](CC(C)C)C(=O)NC(C)(C)C(=O)N[C@H](CC(C)C)C(=O)N[C@H](CC(C)C)C(=O)NC(C)(C)C(=O)NC(C)(C)C(=O)NCCC(=O)N[C@@H](C)CN(C)C` [Compound 5850, (2S)-N-[(1S)-1-[(1-{[(1R)-1-{[(1R)-1-{[1-({1-[(2-{[(2S)-1-(dimethylamino)propan-2-yl]carbamoyl}ethyl)carbamoyl]-1-methylethyl}carbamoyl)-1-methylethyl]carbamoyl}-3-methylbutyl]carbamoyl}-3-methylbutyl]carbamoyl}-1-methylethyl)carbamoyl]-3-methylbutyl]-2-{[(2S)-1-hexanoylpyrrolidin-2-yl]formamido}decanamide] (Hexanoyl-P[Gly(octyl)]L[Aib][dL][dL][Aib][Aib][βAla]-{NH((S)CH(Me)CH2NMe2)}), the IC50 in data set [1] came to 319 nM; in data set [2] it was 71.5 nM; in data set [4], 18.5 nM; in data set [5], 8.8 nM; in the data set with Plasmodium falciparum it was 0.9 nM. The same compound had an IC50 at 70 h in data set [6] of 820 nM.
Regarding `CCCCCCCC[C@H](NC(=O)[C@@H]1CCCN1S(=O)(=O)c1cccc2c(N(C)C)cccc12)C(=O)N[C@@H](CC(C)C)C(=O)NC(C)(C)C(=O)N[C@@H](CC(C)C)C(=O)N[C@@H](CC(C)C)C(=O)NC(C)(C)C(=O)NC(C)(C)C(=O)NCCC(=O)N[C@@H](C)CN(C)C` [Compound 5765, (2S)-2-{[(2S)-1-{[5-(dimethylamino)naphthalen-1-yl]sulfonyl}pyrrolidin-2-yl]formamido}-N-[(1S)-1-[(1-{[(1S)-1-{[(1S)-1-{[1-({1-[(2-{[(2S)-1-(dimethylamino)propan-2-yl]carbamoyl}ethyl)carbamoyl]-1-methylethyl}carbamoyl)-1-methylethyl]carbamoyl}-3-methylbutyl]carbamoyl}-3-methylbutyl]carbamoyl}-1-methylethyl)carbamoyl]-3-methylbutyl]decanamide] (Dansyl-P[Gly(octyl)]L[Aib]LL[Aib][Aib][βAla]-{NH((S)CH(Me)CH2NMe2)}), the IC50 was 126 nM in data set [1]; 203 nM in data set [2]; 1.6 nM in data set [4]; 4.3 nM in data set [5]; 1 nM in the data set with Plasmodium falciparum. In data set [6], this compound registered an IC50 at 70 h of 250 nM.
